The target in assay [1] is T1, Leukotriene B4 receptor 1 (Homo sapiens, UniProt Q15722). The assay is described as follows: Displacement of [3H]LTB4 from LTB4 receptor expressed in human U937 cell membrane. The format is cell membranes, U-937. Background: Loss of bound radioactivity is the signal in a displacement assay; it reports binding, not function.
Assay [2] has as its target T1, Leukotriene B4 receptor 1. The assay is described as follows: Binding affinity to LTB4 receptor in human U937 cells by whole cell assay. The assay is classed as cell-based, U-937.
The target in assay [3] is T1, Leukotriene B4 receptor 1. The assay can be described thus: Antagonist activity at LTB4 receptor in fura-2 loaded human U937 cells assessed as inhibition of LTB4-induced calcium mobilization. The format is functional, cell-based, U-937. (In general: Calcium assays in cells follow changes in intracellular calcium, usually with a dye or a luminescent sensor.)

T1 sequence (Q15722 whole entry): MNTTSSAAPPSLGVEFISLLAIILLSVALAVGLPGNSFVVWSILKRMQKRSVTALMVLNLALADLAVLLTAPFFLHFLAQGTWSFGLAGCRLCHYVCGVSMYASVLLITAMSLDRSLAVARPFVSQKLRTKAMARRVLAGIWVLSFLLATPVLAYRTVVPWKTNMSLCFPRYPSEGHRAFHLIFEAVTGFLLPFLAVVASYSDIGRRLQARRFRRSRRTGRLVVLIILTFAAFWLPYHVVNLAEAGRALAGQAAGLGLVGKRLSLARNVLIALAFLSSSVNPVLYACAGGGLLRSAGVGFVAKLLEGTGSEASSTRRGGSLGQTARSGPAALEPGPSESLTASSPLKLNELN

As to `CN1C(=N)N(C)/C(=N/c2nc(Cc3ccc4c(c3)OCO4)c(Cc3ccc4c(c3)OCO4)n2C)C1=O` [LEUCETTAMIDINE], in assay [1], the IC50 came out at 15.6 µM and the affinity, expressed as Ki, was 5.3 µM.

Take `Cn1c(N)nc(Cc2ccc3c(c2)OCO3)c1Cc1ccc2c(c1)OCO2` [LEUCETTAMINE A]: the concentration for half-maximal inhibition (IC50) turned out to be 4 µM in assay [1], 0.75 µM in assay [2] and 4.6 µM in assay [3]. In addition, in assay [1], the Ki was 1.3 µM.

Molecule `CN1C(=O)/C(=C/c2ccc3c(c2)OCO3)N=C1N` [LEUCETTAMINE B] showed an inhibition constant (Ki) in assay [1] of 100 µM.

A word on the IC50: it is the concentration that gives 50% inhibition. One may read the Ki as a measure of affinity in units of concentration, obtained from inhibition or displacement.

The record behind these values is ChEMBL document CHEMBL1147335, “New leukotriene B4 receptor antagonist: leucettamine A and related imidazole alkaloids from the marine sponge Leucetta microraphis” (J Nat Prod, 1993).
